Structures can show the parent of a compound that is named as a salt.
Row | Compound | melting point [°C]
1 | CCCCCc1cc2c(nc(O)n2Cc2ccccc2)c(N)n1 (as salt: salt) [Example 1, 4-Amino-1-benzyl-6-pentyl-1H-imidazo[4,5-c]pyridin-2-ol] | 260 to 262
2 | CCCCCc1cc2c(nc(O)n2CCc2ccccc2)c(N)n1 [Example 2, 4-Amino-6-pentyl-1-(2-phenylethyl)-1H-imidazo[4,5-c]pyridin-2-ol] | 238 to 240
3 | CCCCCc1cc2c(nc(O)n2CC(C)(C)O)c(N)n1 [Example 3, 4-Amino-1-(2-hydroxy-2-methylpropyl)-6-pentyl-1H-imidazo[4,5-c]pyridin-2-ol] | 240 to 243
4 | CCCCCc1cc2c(nc(O)n2CC2CCOCC2)c(N)n1 [Example 4, 4-Amino-6-pentyl-1-(tetrahydro-2H-pyran-4-ylmethyl)-1H-imidazo[4,5-c]pyridin-2-ol] | > 250
5 | CCCCCc1cc2c(nc(O)n2Cc2cccnc2)c(N)n1 [Example 5, 4-Amino-6-pentyl-1-(pyridin-3-ylmethyl)-1H-imidazo[4,5-c]pyridin-2-ol] | 243 to 245
6 | CCCCCc1cc2c(nc(O)n2CCOCCCc2nccs2)c(N)n1 [Example 7] | 177 to 178
7 | CCCCCc1cc2c(nc(O)n2CCCNS(C)(=O)=O)c(N)n1 [Example 8, N-[3-(4-Amino-2-hydroxy-6-pentyl-1H-imidazo[4,5-c]pyridin-1-yl)propyl]methanesulfonamide] | 174 to 176
8 | CCCCCc1cc2c(nc(O)n2CCCNC(C)=O)c(N)n1 [Example 10, N-[3-(4-Amino-2-hydroxy-6-pentyl-1H-imidazo[4,5-c]pyridin-1-yl)propyl]acetamide] | 189 to 191
9 | CCCCCc1cc2c(nc(O)n2CC2CCNCC2)c(N)n1 [Example 11, 4-Amino-6-pentyl-1-(piperidin-4-ylmethyl)-1H-imidazo[4,5-c]pyridin-2-ol] | 246 to 249
10 | CCCCCc1cc2c(nc(O)n2CC2CCN(S(C)(=O)=O)CC2)c(N)n1 [Example 12, 4-Amino-1-{[1-(methylsulfonyl)piperidin-4-yl]methyl}-6-pentyl-1H-imidazo[4,5-c]pyridin-2-ol] | 228 to 231
11 | CCCCOc1cc2c(nc(O)n2Cc2ccccc2)c(N)n1 [Example 23, 4-amino-1-benzyl-6-butoxy-1H-imidazo[4,5-c]pyridin-2-ol] | 205 to 208

More lines, now with the values ahead:

Row | melting point [°C] | Compound
12 | 228 to 231 | CCCCCc1cc2c(nc(O)n2CC2CCN(C(C)=O)CC2)c(N)n1 [Example 13, 1-[(1-Acetylpiperidin-4-yl)methyl]-4-amino-6-pentyl-1H-imidazo[4,5-c]pyridin-2-ol]
13 | 222 to 225 | CCCCCc1cc2c(nc(O)n2CC2CCN(S(=O)(=O)CC)CC2)c(N)n1 [Example 14, 4-Amino-1-{[1-(ethylsulfonyl)piperidin-4-yl]methyl}-6-pentyl-1H-imidazo[4,5-c]pyridin-2-ol]
14 | 205 to 207 | CCCCCc1cc2c(nc(O)n2CC2CCN(C(=O)C3CC3)CC2)c(N)n1 [Example 15, 4-Amino-1-{[1-(cyclopropylcarbonyl)piperidin-4-yl]methyl}-6-pentyl-1H-imidazo[4,5-c]pyridin-2-ol]
15 | 188 to 189 | CCCCCc1cc2c(nc(O)n2CCCCS(C)(=O)=O)c(N)n1 [Example 16, 4-Amino-1-[4-(methylsulfonyl)butyl]-6-pentyl-1H-imidazo[4,5-c]pyridin-2-ol]
16 | 223 to 225 | CCCCCc1cc2c(nc(O)n2CCS(C)(=O)=O)c(N)n1 [Example 17, 4-Amino-1-[2-(methylsulfonyl)ethyl]-6-pentyl-1H-imidazo[4,5-c]pyridin-2-ol]
17 | 203 to 206 | CCOCCc1cc2c(nc(O)n2CCCCS(C)(=O)=O)c(N)n1 [Example 18, 4-Amino-6-(2-ethoxyethyl)-1-[4-(methylsulfonyl)butyl]-1H-imidazo[4,5-c]pyridin-2-ol]
18 | 250 | Cc1nc(N)c2nc(O)n(Cc3cc(-c4ccc(F)cc4)no3)c2c1C [Example 19, 4-Amino-1-{[3-(4-fluorophenyl)isoxazol-5-yl]methyl}-6,7-dimethyl-1H-imidazo[4,5-c]pyridin-2-ol]
19 | > 300 | Cc1cc(Cn2c(O)nc3c(N)nc(C)c(C)c32)on1 [Example 20, 4-Amino-6,7-dimethyl-1-[(3-methylisoxazol-5-yl)methyl]-1H-imidazo[4,5-c]pyridin-2-ol]
20 | 146.7 to 147.7 | CCCCCc1cc2c(nc(O)n2[C@@H](C)c2ccccc2)c(N)n1 [Example 21, 4-Amino-6-pentyl-1-[(1S)-1-phenylethyl]-1H-imidazo[4,5-c]pyridin-2-ol]
21 | 147.1 to 148 | CCCCCc1cc2c(nc(O)n2[C@H](C)c2ccccc2)c(N)n1 [Example 22, 4-Amino-6-pentyl-1-[(1R)-1-phenylethyl]-1H-imidazo[4,5-c]pyridin-2-ol]

— patent US20100152230A1, “HYDROXY SUBSTITUTED 1H-IMIDAZOPYRIDINES AND METHODS” (Pfizer Inc., priority 2005, published 2010)
